Assay results: ChEMBL document CHEMBL5537193, “Multitargeting HDAC Inhibitors Containing a RAS/RAF Protein Interfering Unit” (J Med Chem, 2024)

Assays:
A549 = assay: cells; conditions: Homo sapiens, A549, 72 h
Description: Cytotoxicity against human A549 cells assessed as inhibition of cell growth incubated for 72 hrs by MTT assay

L02 = assay: cells; conditions: Homo sapiens, L02, 72 h
Description: Cytotoxicity against human L02 cells assessed as inhibition of cell growth incubated for 72 hrs by MTT assay

NCI-H1975 = assay: cells; conditions: Homo sapiens, NCI-H1975, 72 h
Description: Cytotoxicity against human NCI-H1975 cells assessed as inhibition of cell growth incubated for 72 hrs by MTT assay

SGC-7901 = assay: cells; conditions: Homo sapiens, SGC-7901, 72 h
Description: Cytotoxicity against human SGC-7901 cells assessed as inhibition of cell growth incubated for 72 hrs by MTT assay

A-431 = assay: cells; conditions: Homo sapiens, A-431, 72 h
Description: Cytotoxicity against human A-431 cells assessed as inhibition of cell growth incubated for 72 hrs by MTT assay

MCF7 = assay: cells; conditions: Homo sapiens, MCF7, 72 h
Description: Cytotoxicity against human MCF7 cells assessed as inhibition of cell growth incubated for 72 hrs by MTT assay

HepG2 = assay: cells; conditions: Homo sapiens, HepG2, 72 h
Description: Cytotoxicity against human HepG2 cells assessed as inhibition of cell growth incubated for 72 hrs by MTT assay

[1] = Metabolic stability in human liver microsomes assessed as half-life measured upto 40 mins by LC-MS/MS analysis; assay type: ADME, Microsome
[2] = Metabolic stability in rat liver microsomes assessed as intrinsic clearance measured upto 40 mins by LC-MS/MS analysis; assay type: ADME, Microsome; conditions: read-out: CLH
[3] = Metabolic stability in human liver microsomes assessed as intrinsic clearance measured upto 40 mins by LC-MS/MS analysis; assay type: ADME, Microsome; conditions: read-out: CLH
[4] = Metabolic stability in mouse liver microsomes assessed as intrinsic clearance measured upto 40 mins by LC-MS/MS analysis; assay type: ADME, Microsome; conditions: read-out: CLH
[5] = Metabolic stability in mouse liver microsomes assessed as half-life measured upto 40 mins by LC-MS/MS analysis; assay type: ADME, Microsome
[6] = Metabolic stability in rat liver microsomes assessed as half-life measured upto 40 mins by LC-MS/MS analysis; assay type: ADME, Microsome

SMILES	IC50 (A549)	IC50 (L02)	IC50 (NCI-H1975)	IC50 (SGC-7901)	IC50 (A-431)	IC50 (MCF7)	IC50 (HepG2)	half-life [1]	CLint scaled [2]	CLint scaled [3]	CLint scaled [4]	half-life [5]	half-life [6]
COc1cc(OC)c(/C=C/S(=O)(=O)Cc2ccc(OC)c(NCCC(=O)NO)c2)c(OC)c1	9.35 µM	> 40 µM	3.95 µM	5.46 µM	2.03 µM	5.45 µM	15 µM	–	–	–	–	–	–
COc1cc(OC)c(/C=C/S(=O)(=O)Cc2ccc(OC)c(NCCCCCC(=O)NO)c2)c(OC)c1	6.02 µM	> 40 µM	5.08 µM	4.92 µM	4.64 µM	7.56 µM	4.64 µM	–	–	–	–	–	–
O=C(c1ccc(F)cc1)C1CCN(CCn2c(=O)[nH]c3ccccc3c2=O)CC1 [KETANSERIN]	–	–	–	–	–	–	–	36.6 min	141 mL/min/kg	47.5 mL/min/kg	265 mL/min/kg	20.6 min	17.6 min
COc1cc(OC)c(/C=C/S(=O)(=O)Cc2ccc(OC)c(NC(=O)CCC(=O)Nc3ccccc3N)c2)c(OC)c1	7.41 µM	> 40 µM	2.58 µM	6.6 µM	1.26 µM	13.2 µM	12.3 µM	–	–	–	–	–	–
COc1cc(OC)c(/C=C/S(=O)(=O)Cc2ccc(OC)c(NC(=O)CCCC(=O)NO)c2)c(OC)c1	1.74 µM	> 40 µM	0.67 µM	1.87 µM	11.4 µM	3.78 µM	5.89 µM	–	–	–	–	–	–
COc1cc(OC)c(/C=C/S(=O)(=O)Cc2ccc(OC)c(NCCCCCC(=O)Nc3ccccc3N)c2)c(OC)c1	12.8 µM	> 40 µM	4.75 µM	8.89 µM	4.47 µM	10.5 µM	7.54 µM	–	–	–	–	–	–
